Reference: patent US6673938B1, “Substituted pyridine herbicides” (Syngenta Participations AG, priority 1998, dated 2004)

Columns and labels:
[1] = test system: Monocotyledonous and dicotyledonous test plants; assay: Herbicidal action before emergence of the plants (pre-emergence action); type: in vivo; settings: evaluated after 3 weeks, nine-step scale; for pre-emergence action, Cyperus / pre-emergence action, Ipomoea / pre-emergence action, Setaria / pre-emergence action, Sinapis / pre-emergence action, Solanum / pre-emergence action, Stellaria: 2000 g/ha; for Pre-emergence action, Abutilon / Pre-emergence action, Amaranthus / Pre-emergence action, Chenop. / Pre-emergence action, Digitaria / Pre-emergence action, Echino. / Pre-emergence action, Panicum: 250 g/ha
Procedure: Monocotyledonous and dicotyledonous test plants are sown in standard soil in plastic pots. Immediately after sowing, the test substances as aqueous suspensions (prepared with a 25% wettable powder (Example F3, b) in accordance with WO 97/34485) or as emulsions (prepared with a 25% emulsion concentrate (Example F1, c)) are sprayed on at a rate of 2 kg of a.i./ha or 250 g of a.i./ha (500 l of water/ha). The test plants are then grown in the greenhouse under optimal conditions. After a test period of 3 weeks, the experiment is evaluated with reference to a nine-step scale (1=complete damage, 9=no effect). Score figures of 1 to 4 (in particular 1 to 3) mean a good to very good herbicidal action.

[2] = test system: Monocotyledonous and dicotyledonous test plants; assay: Post-emergence herbicidal action; type: in vivo; settings: evaluated after approximately 18 days; for Post-emergence action, Ipomoea / Post-emergence action, Lolium / Post-emergence action, Setaria / Post-emergence action, Sinapis / Post-emergence action, Solanum / Post-emergence action, Stellaria: 2000 g/ha, sprayed in 4- to 6-leaf stage, nine-step scale; for Post-emergence action: Abutilon (score, nine-step scale) / Post-emergence action: Chenop. (score, nine-step scale) / Post-emergence action: Digitaria (score, nine-step scale) / Post-emergence action: Echino. (score, nine-step scale) / Post-emergence action: Ipopur. (score, nine-step scale) / Post-emergence action: Panicum (score, nine-step scale) / Post-emergence action: Xanth. (score, nine-step scale): 250 g/ha, sprayed at 4- to 6-leaf stage
Procedure: Monocotyledonous and dicotyledonous test plants are grown in the greenhouse in plastic pots containing standard soil, and, in the 4- to 6-leaf stage, sprayed with an aqueous suspension of the test substances of the formula I prepared with a 25% wettable powder (Example F3, b) in accordance with WO 97/34485) or with an emulsion of the test substances of the formula I prepared with a 25% emulsion concentrate (Example F1, c) in accordance with WO 97/34485), corresponding to a rate of 2 kg of a.i./ha or 250 g of a.i./ha (500 l of water/ha). The test plants are subsequently grown on in the greenhouse under optimal conditions. After a test period of approximately 18 days, the test is evaluated with reference to a nine-step scale (1=complete damage, 9=no effect). Score figures of 1 to 4 (in particular 1 to 3) mean a good to very good herbicidal action. In this test, the compounds of the formula I show a potent herbicidal action.

SMILES	pre-emergence action, Cyperus [1]	pre-emergence action, Ipomoea [1]	pre-emergence action, Setaria [1]	pre-emergence action, Sinapis [1]	pre-emergence action, Solanum [1]	pre-emergence action, Stellaria [1]	Post-emergence action, Ipomoea [2]	Post-emergence action, Lolium [2]	Post-emergence action, Setaria [2]	Post-emergence action, Sinapis [2]	Post-emergence action, Solanum [2]	Post-emergence action, Stellaria [2]	further results
CC1(C)CCC(=O)C(C(=O)c2ccc(C(F)(F)F)nc2C(F)F)=C1O [Compound A18-B24]	1	1	1	1	1	2	1	2	2	1	2	2	–
CCC1(C)CCC(=O)C(C(=O)c2ccc(C(F)(F)F)nc2C)=C1O (centres unmarked) [Compound A2-B25]	2	3	2	2	1	2	1	2	2	2	1	2	–
Cc1nc(C(F)(F)F)ccc1C(=O)C1=C(O)C(C)CC(C)C1=O (stereo not drawn) [A2-B46 (trans)]	1	2	1	2	1	2	1	2	2	1	1	2	–
CCC1(C)CC(C)(C)C(=O)C(C(=O)c2ccc(C(F)(F)F)nc2C)=C1O (centres unmarked) [Compound A2-B91]	1	2	1	2	1	2	1	2	2	1	2	2	–
COCc1nc(C(F)(F)F)ccc1C(=O)C1=C(O)C(C)(C(=O)OC)CCC1=O (centres unmarked) [Compound A8-B34]	2	3	2	2	2	2	2	2	2	2	2	2	–
Cc1nc(C(F)(F)F)ccc1C(=O)C1=C(O)C(C)CCC1=O (centres unmarked) [Compound A2-B2]	1	1	1	1	1	2	1	2	2	1	2	2	–
Cc1nc(C(F)(F)F)ccc1C(=O)C1=C(O)CC(C)CC1=O (centres unmarked) [Compound A2-B133]	1	2	2	2	1	2	1	2	2	1	2	2	–
COCc1nc(C(F)(F)F)ccc1C(=O)C1=C([S+]([O-])c2ccccc2)CCCC1=O (centres unmarked) [Compound A8-B1103]	1	3	2	1	1	2	1	4	1	1	1	1	–
COC(=O)C1(OC)CCC(=O)C(C(=O)c2ccc(C(F)(F)F)nc2C)=C1O (centres unmarked) [Compound A2-B1067]	2	3	2	2	3	3	–	–	–	–	–	–	–
COCc1nc(C(F)(F)F)ccc1C(=O)C1=C(O)CC(C)(C)CC1=O [Compound A8-B1063]	–	–	–	–	–	–	–	–	–	–	–	–	Pre-emergence action, Abutilon [1]: 2; Pre-emergence action, Amaranthus [1]: 4; Pre-emergence action, Chenop. [1]: 1; Pre-emergence action, Digitaria [1]: 3; Pre-emergence action, Echino. [1]: 3; Pre-emergence action, Panicum [1]: 2
COc1nc(C(F)(F)F)ccc1C(=O)C1=C(O)C(C)(C)CCC1=O [Compound A1022-B24]	–	–	–	–	–	–	–	–	–	–	–	–	Pre-emergence action, Abutilon [1]: 3; Pre-emergence action, Amaranthus [1]: 4; Pre-emergence action, Chenop. [1]: 1; Pre-emergence action, Digitaria [1]: 4; Pre-emergence action, Echino. [1]: 4; Pre-emergence action, Panicum [1]: 2
Cc1nc(C(F)(F)F)ccc1C(=O)C1=C(O)C(C)(C)OCC1=O [Compound A2-B552]	1	2	2	2	1	2	–	–	–	–	–	–	–
CCN(CC)CC.Cc1nc(C(F)(F)F)ccc1C(=O)C1=C(O)CC(C)CC1=O (centres unmarked) [Compound A2-B1101]	–	–	–	–	–	–	2	2	2	1	1	3	–
COCc1nc(C(F)(F)F)ccc1C(=O)C1=C(O)C(C)C(C)CC1=O (centres unmarked) [Compound A8-B134]	–	–	–	–	–	–	–	–	–	–	–	–	Post-emergence action: Abutilon (score, nine-step scale) [2]: 2; Post-emergence action: Chenop. (score, nine-step scale) [2]: 2; Post-emergence action: Digitaria (score, nine-step scale) [2]: 3; Post-emergence action: Echino. (score, nine-step scale) [2]: 3; Post-emergence action: Ipopur. (score, nine-step scale) [2]: 3; Post-emergence action: Panicum (score, nine-step scale) [2]: 3; Post-emergence action: Xanth. (score, nine-step scale) [2]: 3
COC(=O)C1C(O)=C(C(=O)c2ccc(C(F)(F)F)nc2C)C(=O)CC1C (centres unmarked) [Compound A2-B144]	3	4	2	2	2	4	–	–	–	–	–	–	–
CCOC(=O)C1(C)C(O)=C(C(=O)c2ccc(C(F)(F)F)nc2COC)C(=O)C2CC21 (centres unmarked) [Compound A8-D111]	–	–	–	–	–	–	–	–	–	–	–	–	Post-emergence action: Abutilon (score, nine-step scale) [2]: 3; Post-emergence action: Chenop. (score, nine-step scale) [2]: 3; Post-emergence action: Digitaria (score, nine-step scale) [2]: 3; Post-emergence action: Echino. (score, nine-step scale) [2]: 3; Post-emergence action: Ipopur. (score, nine-step scale) [2]: 2; Post-emergence action: Panicum (score, nine-step scale) [2]: 3; Post-emergence action: Xanth. (score, nine-step scale) [2]: 1
Cc1nc(C(F)(F)F)ccc1C(=O)C1=C(O)CCC2(CCCCCC2)C1=O [Compound A2-C149]	–	–	–	–	–	–	1	3	2	1	2	2	–
